The values below come from EP0116255A2, “Treatment of migraine with N-alkyl-piperidinyl benzoate derivatives” (MERRELL DOW FRANCE ET CIE, priority 1982, dated 1984).

Like-named read-outs stand apart in the source and are kept apart here.

Test [1] concerns the target T1, 5-HT M-receptor (Oryctolagus cuniculus, UniProt A0A5F9C9J3).
T1 sequence (A0A5F9C9J3 35-494): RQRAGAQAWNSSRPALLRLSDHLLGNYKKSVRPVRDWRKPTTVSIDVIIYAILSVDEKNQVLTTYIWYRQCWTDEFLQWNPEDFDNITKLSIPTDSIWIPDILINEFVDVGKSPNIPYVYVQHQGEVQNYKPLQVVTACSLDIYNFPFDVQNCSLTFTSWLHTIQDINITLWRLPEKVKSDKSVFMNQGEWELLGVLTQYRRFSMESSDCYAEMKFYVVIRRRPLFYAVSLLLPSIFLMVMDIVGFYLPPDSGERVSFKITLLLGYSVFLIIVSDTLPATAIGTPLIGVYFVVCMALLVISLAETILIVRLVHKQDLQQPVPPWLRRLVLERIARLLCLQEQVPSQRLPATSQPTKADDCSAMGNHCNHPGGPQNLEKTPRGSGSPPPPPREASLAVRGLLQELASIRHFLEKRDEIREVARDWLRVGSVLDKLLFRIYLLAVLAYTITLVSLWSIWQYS
Put plainly: pA2 against 5-HT in the isolated rabbit heart. Particulars: negative logarithm of molar antagonist concentration reducing effect of twice the ED50 of 5-HT to that of the ED50. As for the experimental part:
The activity of the compounds against 5-HT can be assessed by determining their pA2 values in the isolated rabbit heart as described by J.R. Fozard et al Europ. J. Pharmacol. 59, 195-210 (1979). In the method described the molar concentration of antagonist which reduces the effects of twice the ED50 of 5-HT to that of the ED50 in the absence of antagonist is determined. The pA2 value is the negative logarithm of said molar concentrations.

The subject of test [2] is von Bezold-Jarisch reflex evoked by 5-HT. As to the kind of experiment: Antagonism of the von Bezold-Jarisch reflex evoked by 5-HT in the anaesthetised rat. Format: in vivo. Particulars: iv, anaesthetised male Sprague-Dawley rat, antagonist intravenously; for ED50: dose inhibiting the response to 5-HT (2µg/kg i.v.) by 50%. From the text: The activity of the compounds of Formula I against 5-HT can be assessed in vivo by measurement of the effect of the compound on the Von Bezold-Jarisch Reflex induced by 5-HT injected intravenously into the rat (see A.S. Paintal, Physiol. Rev. 53 (159-227), 1973). The transient cardiac slowing results arises from an increased efferent vagus activity arising from stimulation by 5-HT of sensory afferent fibres in and around the heart.
Antagonism of the von Bezold-Jarisch reflex evoked by 5-HT in the anaesthetised rat was measured for N-methyl-4-piperidinyl-3',5'-dimethylbenzoate (Compound A) and N-methyl-3-piperidinyl 3',5'-dimethylbenzoate (Compound B), using the following method: • Male Sprague-Dawley rats weighing 250-300 g are anaesthetized with urethane, 1.25 g/kg injected intraperitoneally and set up for recording blood pressure and heart rate as described in Fozard J.R et al., J. Cardiovasc. Pharmacol. 2, 229-245 (1980). A submaximal dose of 5-HT (2µg/kg) is given repeatedly into the cannulated jugular vein and changes in heart rate quantified. Antagonists are given intravenously and the doses required to just inhibit the response to 5-HT (threshold dose) or to inhibit the response to 5-HT by 50% (ED50) are determined.

For test [3], the target named is T1, 5-HT M-receptor. The settings on record: 5-HT M-receptor antagonism; values reported in the literature (J.R. Fozard et al., Eur. J. Pharmacol.); cited from earlier work.

The ED50 is the dose at which the effect has come halfway, by size or by number of responders. With `Cc1cc(C)cc(C(=O)OC2CCN(C)CC2)c1` [Compound A, N-Methyl-4-piperidinyl-3',5'-dimethylbenzoate], the “pA2 5-HT” value in test [1] came out at 8.1. Further, the ED50 in test [2] was 0.136 ± 0.022 mg/kg.

In the case of `Cc1cc(C)cc(C(=O)OC2CCCN(C)C2)c1` (stereo not drawn) [Compound B, N-Methyl-3-piperidinyl-3',5'-dimethylbenzoate], the “pA2 5-HT” value in test [1] is recorded as 7.3. Moreover, the ED50 in test [2] is 0.51 ± 0.116 mg/kg. With `CCN(CC)CCNC(=O)c1cc(Cl)c(N)cc1OC` [metoclopramide], the “pA2 5-HT” value in test [3] is 7.2. In test [2], this molecule had an ED50 of 0.408 ± 0.0809 mg/kg. Moreover, in test [2] (dose required to just inhibit the response to 5-HT (2µg/kg i.v.), read-out: THRESHOLD DOSE), the minimal effective dose was 0.233 ± 0.0663 mg/kg. With `COC(=O)[C@H]1[C@@H](OC(=O)c2ccccc2)C[C@@H]2CC[C@H]1N2` [nor(-)cocaine], the “pA2 5-HT” value in test [3] is reported as 7.7. With tropyl benzoate, in test [3], the “pA2 5-HT” value was 7.2.
